Laboratory results: publication PMC7714403 (JCI Insight, 2020)
Where two headings read alike, the source gives them in different places.

What was measured:
Assay in all cases: KiNativ, MOLM13 live cells
Format in all cases: cell-based
BARK1 = BARK1 (Homo sapiens, UniProt P25098); conditions: MOLM-13; 100 nM, 2 hours; Lys2; read-out: Inhibition vs DMSO
Protocol: (§1) Samples were analyzed by KiNativ in situ kinase profiling by ActivX Biosciences.

DNAPK = DNAPK (Homo sapiens, UniProt P78527); conditions: MOLM-13, 2 h, 100 nM, ATP, read-out: Inhibition vs DMSO
Protocol: as §1

Erk2 = Erk2 (Homo sapiens, UniProt P28482); conditions: MOLM-13; 100 nM, 2 hours; Lys2; read-out: Inhibition vs DMSO
Protocol: as §1

LKB1 = LKB1 (Homo sapiens, UniProt Q15831); conditions: MOLM-13; 100 nM, 2 hours; Lys2; read-out: Inhibition vs DMSO
Protocol: as §1

MAP2K5 = MAP2K5 (Homo sapiens, UniProt Q13163); conditions: MOLM-13; 100 nM, 2 hours; Lys2; read-out: Inhibition vs DMSO
Protocol: as §1

MAP2K7 = MAP2K7 (Homo sapiens, UniProt O14733); conditions: 100 nM, 2 hours; Lys2
Protocol: as §1

MAST3 = MAST3 (Homo sapiens, UniProt O60307); conditions: MOLM-13; 100 nM, 2 hours; Lys2; read-out: Inhibition vs DMSO
Protocol: as §1

MASTL = target: T1, MASTL (Homo sapiens, UniProt Q96GX5); conditions: 100 nM, 2 hours
T1 sequence (Q96GX5 1-879): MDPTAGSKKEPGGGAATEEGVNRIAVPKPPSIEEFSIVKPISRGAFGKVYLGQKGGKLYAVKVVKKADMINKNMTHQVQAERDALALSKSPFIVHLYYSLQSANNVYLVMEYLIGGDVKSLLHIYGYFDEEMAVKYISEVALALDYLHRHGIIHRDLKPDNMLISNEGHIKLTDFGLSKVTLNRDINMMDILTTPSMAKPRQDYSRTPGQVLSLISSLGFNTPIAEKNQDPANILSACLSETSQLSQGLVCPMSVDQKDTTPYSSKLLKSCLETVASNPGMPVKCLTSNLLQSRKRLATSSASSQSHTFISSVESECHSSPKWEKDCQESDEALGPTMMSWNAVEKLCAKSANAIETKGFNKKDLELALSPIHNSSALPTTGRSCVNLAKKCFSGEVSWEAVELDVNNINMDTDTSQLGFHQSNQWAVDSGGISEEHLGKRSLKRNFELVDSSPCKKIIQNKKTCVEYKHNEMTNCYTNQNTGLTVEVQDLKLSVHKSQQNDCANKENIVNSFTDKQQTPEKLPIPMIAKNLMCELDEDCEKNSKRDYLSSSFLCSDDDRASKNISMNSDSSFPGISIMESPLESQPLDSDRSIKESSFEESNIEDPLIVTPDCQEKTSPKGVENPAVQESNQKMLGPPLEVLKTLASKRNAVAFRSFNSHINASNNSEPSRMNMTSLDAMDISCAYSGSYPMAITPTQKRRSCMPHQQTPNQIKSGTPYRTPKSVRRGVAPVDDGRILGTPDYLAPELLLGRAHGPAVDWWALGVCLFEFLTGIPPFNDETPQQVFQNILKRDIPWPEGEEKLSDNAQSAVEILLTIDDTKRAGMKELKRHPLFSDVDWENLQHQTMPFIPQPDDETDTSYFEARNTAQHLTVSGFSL
Protocol: as §1

MSK1 domain1 = target: T2, MSK1 domain1 (Homo sapiens, UniProt O75582); conditions: MOLM-13; 100 nM, 2 hours; Lys2; read-out: Inhibition vs DMSO
T2 construct: MSK1 domain1
Protocol: as §1

PIK3CD = PIK3CD (Homo sapiens, UniProt O00329); conditions: MOLM-13; 100 nM, 2 hours; ATP; read-out: Inhibition vs DMSO
Protocol: as §1

PIK3CG = PIK3CG (Homo sapiens, UniProt P48736); conditions: MOLM-13; 100 nM, 2 hours; ATP; read-out: Inhibition vs DMSO
Protocol: as §1

PIP4K2B = PIP4K2B (Homo sapiens, UniProt P78356); conditions: MOLM-13; 100 nM, 2 hours; ATP; read-out: Inhibition vs DMSO
Protocol: as §1

PYK2 = PYK2 (Homo sapiens, UniProt Q14289); conditions: MOLM-13; 100 nM, 2 hours; Activation Loop; read-out: Inhibition vs DMSO
Protocol: as §1

RSK1 domain1 = target: T3, RSK1 domain1 (Homo sapiens, UniProt Q15418); conditions: MOLM-13; 100 nM, 2 hours; Activation Loop; read-out: Inhibition vs DMSO
T3 construct: RSK1 domain1
Protocol: as §1

p70S6K = p70S6K (Homo sapiens, UniProt P23443); conditions: MOLM-13; 100 nM, 2 hours; Lys2; read-out: Inhibition vs DMSO
Protocol: as §1

Sequence of DNAPK (P78527 2-4128 limits assumed): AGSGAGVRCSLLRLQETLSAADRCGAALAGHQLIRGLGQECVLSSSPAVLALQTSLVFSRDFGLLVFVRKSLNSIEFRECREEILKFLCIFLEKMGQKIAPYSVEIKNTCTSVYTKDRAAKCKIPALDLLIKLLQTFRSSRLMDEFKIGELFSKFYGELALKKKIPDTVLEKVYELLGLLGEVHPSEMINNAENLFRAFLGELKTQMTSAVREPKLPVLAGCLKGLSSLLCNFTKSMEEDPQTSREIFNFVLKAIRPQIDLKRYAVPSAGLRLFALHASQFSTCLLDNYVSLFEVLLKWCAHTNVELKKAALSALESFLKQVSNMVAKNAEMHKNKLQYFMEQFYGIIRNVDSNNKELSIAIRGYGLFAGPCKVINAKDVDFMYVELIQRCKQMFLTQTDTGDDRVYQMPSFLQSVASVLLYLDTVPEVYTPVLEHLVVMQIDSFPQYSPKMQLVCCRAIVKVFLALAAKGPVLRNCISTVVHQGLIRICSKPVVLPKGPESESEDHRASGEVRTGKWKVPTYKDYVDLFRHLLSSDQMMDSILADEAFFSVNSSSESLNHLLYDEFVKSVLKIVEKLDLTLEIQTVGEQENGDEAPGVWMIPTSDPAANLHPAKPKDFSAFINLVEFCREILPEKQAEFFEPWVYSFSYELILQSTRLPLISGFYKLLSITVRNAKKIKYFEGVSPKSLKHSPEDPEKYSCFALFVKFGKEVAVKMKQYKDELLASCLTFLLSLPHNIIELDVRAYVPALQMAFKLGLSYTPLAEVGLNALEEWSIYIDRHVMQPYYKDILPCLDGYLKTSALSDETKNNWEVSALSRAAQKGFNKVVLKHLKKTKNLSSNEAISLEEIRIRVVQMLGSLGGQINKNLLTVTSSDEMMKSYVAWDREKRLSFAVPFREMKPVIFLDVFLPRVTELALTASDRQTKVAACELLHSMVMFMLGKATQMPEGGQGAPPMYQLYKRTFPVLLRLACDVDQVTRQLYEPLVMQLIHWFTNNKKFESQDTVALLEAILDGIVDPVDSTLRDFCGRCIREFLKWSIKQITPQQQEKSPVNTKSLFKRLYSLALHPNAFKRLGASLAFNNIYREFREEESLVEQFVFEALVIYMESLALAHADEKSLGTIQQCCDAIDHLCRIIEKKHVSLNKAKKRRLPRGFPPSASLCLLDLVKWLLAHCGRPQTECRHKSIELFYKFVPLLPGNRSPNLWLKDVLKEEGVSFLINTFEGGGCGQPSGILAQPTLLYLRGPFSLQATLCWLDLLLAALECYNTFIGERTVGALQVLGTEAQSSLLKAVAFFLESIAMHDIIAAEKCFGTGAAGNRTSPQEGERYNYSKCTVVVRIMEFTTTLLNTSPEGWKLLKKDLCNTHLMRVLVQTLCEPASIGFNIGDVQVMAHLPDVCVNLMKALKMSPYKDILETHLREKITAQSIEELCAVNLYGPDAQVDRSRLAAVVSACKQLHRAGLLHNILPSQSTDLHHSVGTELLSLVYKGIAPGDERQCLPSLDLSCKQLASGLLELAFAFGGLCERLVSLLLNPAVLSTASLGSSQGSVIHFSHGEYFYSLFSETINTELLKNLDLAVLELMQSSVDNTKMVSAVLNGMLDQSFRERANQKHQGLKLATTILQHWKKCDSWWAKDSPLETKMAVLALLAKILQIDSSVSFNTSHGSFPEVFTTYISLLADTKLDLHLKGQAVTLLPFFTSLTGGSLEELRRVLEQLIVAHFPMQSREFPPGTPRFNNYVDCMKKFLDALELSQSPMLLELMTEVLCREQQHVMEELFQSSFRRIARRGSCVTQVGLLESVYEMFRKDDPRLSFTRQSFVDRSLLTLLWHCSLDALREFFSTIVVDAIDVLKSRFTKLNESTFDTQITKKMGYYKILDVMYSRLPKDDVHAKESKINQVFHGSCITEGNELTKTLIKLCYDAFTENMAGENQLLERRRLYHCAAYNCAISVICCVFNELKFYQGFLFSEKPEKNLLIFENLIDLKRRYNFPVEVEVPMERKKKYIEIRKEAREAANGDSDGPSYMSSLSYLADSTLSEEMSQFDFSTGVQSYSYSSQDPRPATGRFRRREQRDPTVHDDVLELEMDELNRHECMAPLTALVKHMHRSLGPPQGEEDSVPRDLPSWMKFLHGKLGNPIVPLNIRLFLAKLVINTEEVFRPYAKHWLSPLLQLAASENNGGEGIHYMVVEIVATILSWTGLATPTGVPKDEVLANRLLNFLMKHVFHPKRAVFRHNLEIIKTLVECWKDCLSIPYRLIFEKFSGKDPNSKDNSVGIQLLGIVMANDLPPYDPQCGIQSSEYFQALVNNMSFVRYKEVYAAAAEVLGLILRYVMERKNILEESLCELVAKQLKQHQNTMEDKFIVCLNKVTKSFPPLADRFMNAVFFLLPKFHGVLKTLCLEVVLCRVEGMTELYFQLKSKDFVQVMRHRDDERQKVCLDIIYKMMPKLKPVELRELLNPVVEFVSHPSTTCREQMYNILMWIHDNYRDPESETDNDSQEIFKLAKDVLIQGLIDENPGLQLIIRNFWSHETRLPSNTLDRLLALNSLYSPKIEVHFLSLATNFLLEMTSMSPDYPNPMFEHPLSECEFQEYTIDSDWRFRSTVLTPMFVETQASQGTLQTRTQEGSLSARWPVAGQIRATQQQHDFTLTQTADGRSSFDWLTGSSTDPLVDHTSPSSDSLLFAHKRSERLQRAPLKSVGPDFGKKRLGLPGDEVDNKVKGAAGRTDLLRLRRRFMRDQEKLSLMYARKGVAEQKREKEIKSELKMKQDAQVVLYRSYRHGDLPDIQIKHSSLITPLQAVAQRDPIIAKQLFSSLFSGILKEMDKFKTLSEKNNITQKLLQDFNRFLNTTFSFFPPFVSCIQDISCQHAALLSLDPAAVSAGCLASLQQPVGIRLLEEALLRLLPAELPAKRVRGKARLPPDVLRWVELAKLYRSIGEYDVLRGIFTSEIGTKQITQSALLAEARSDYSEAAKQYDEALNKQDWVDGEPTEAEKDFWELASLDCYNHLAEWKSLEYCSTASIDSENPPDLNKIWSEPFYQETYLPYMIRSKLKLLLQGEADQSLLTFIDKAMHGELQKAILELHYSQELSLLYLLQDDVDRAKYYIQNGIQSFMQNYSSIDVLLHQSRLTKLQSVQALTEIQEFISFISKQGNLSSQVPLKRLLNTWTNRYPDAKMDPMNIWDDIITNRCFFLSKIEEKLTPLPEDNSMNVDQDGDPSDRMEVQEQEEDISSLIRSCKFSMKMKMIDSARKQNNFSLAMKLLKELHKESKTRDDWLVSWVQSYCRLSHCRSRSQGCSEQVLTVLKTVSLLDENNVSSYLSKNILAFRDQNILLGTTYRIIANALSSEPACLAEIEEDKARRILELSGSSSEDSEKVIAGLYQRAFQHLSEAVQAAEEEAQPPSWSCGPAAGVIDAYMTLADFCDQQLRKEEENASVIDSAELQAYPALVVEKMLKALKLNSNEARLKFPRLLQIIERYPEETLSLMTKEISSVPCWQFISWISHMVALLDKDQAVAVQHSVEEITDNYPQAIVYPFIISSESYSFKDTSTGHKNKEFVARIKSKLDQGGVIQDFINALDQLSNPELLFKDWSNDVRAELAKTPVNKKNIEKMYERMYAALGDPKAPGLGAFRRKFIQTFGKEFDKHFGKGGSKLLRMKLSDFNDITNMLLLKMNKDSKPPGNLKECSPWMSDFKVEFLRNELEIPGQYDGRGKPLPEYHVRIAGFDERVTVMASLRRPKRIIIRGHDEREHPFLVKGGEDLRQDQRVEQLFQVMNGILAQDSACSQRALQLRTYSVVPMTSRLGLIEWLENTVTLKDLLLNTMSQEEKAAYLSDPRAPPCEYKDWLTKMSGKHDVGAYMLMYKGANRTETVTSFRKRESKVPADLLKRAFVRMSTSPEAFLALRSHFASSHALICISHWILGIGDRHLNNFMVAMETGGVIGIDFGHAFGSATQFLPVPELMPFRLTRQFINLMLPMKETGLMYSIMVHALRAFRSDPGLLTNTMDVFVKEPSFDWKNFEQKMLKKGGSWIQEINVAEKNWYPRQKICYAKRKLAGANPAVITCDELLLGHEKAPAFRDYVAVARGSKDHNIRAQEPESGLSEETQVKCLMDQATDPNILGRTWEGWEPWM
Sequence of BARK1 (P25098 whole entry): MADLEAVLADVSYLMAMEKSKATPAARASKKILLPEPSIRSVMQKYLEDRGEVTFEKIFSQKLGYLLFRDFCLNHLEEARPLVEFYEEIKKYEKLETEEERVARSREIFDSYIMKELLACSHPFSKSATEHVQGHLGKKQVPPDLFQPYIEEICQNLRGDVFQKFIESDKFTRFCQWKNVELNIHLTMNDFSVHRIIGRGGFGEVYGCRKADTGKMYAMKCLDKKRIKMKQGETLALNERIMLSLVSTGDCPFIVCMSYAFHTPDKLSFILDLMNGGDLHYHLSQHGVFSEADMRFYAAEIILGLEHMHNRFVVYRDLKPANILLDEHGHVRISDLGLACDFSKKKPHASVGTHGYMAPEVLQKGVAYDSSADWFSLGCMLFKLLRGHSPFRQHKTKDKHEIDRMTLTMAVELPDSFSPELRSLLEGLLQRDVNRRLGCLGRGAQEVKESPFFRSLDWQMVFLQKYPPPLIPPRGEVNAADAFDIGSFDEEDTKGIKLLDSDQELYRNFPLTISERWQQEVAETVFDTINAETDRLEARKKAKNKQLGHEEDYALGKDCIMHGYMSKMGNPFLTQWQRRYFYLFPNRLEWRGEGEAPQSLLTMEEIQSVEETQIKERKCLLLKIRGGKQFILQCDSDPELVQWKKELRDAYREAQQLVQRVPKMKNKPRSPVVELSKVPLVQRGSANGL
Sequence of Erk2 (P28482 whole entry): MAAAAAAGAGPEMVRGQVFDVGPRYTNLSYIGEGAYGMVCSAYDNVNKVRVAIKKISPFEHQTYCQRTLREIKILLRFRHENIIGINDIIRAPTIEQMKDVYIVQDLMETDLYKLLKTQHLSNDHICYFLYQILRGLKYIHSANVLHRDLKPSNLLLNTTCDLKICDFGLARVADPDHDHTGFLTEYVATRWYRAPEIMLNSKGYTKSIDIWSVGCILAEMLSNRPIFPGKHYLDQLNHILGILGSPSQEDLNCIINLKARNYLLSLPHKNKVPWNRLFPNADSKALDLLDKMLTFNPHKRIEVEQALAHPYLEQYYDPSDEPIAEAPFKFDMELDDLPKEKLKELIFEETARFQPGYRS

## CN1CCN(Cc2ccc(Nc3ncc(Cl)c(Nc4ccccc4S(=O)(=O)N(C)C)n3)cc2)CC1 [TP-0903]
BARK1
  inhibition at 0.1 µM: -13.9%
DNAPK; EHPFLVKGGEDLR
  inhibition at 0.1 µM: 11.7%
DNAPK; KGGSWIQEINVAEK
  inhibition at 0.1 µM: 8.3%
Erk2
  inhibition at 0.1 µM: -9.4%
LKB1
  inhibition at 0.1 µM: 18.2%
MAP2K5
  inhibition at 0.1 µM: -1.6%
MAP2K7
  Inhibition vs DMSO: -0.0231%
MAST3
  inhibition at 0.1 µM: -22.3%
MASTL; ATP Loop
  Inhibition vs DMSO: 10.4%
MASTL; Lys1
  Inhibition vs DMSO: -9.8%
MSK1 domain1
  inhibition at 0.1 µM: -10.3%
PIK3CD
  inhibition at 0.1 µM: -4.6%
PIK3CG
  inhibition at 0.1 µM: -8.5%
PIP4K2B
  inhibition at 0.1 µM: -16.2%
PYK2
  inhibition at 0.1 µM: 21.6%
RSK1 domain1
  inhibition at 0.1 µM: -3.8%
p70S6K
  inhibition at 0.1 µM: -32.8%
